Data reported in ChEMBL document CHEMBL1201862, “PubChem BioAssay data set” (2004).
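Growth conditions: 96-well plates. Treatment: test compound, 48 hours, 5 concentrations. Analysis: linear interpolation between bracketing concentrations; unreached endpoints set to highest concentration. GI50: concentration for 50% inhibition of growth.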 Calls of active or inactive are those of the source. Rule as the data show it: active = GI50 up to about 1.1 µM and inactive = higher.

Key:
Test in all cases: growth of human tumour cells (NCI), 48 h
OVCAR-8 = test system: OVCAR-8
SF-268 = test system: SF-268
RPMI-8226 = test system: RPMI-8226
IGROV-1 = test system: IGROV-1
A498 = test system: A498
HOP-62 = test system: HOP-62
NCI-H23 = test system: NCI-H23
LOX IMVI = test system: LOX IMVI
SK-MEL-2 = test system: SK-MEL-2
SNB-75 = test system: SNB-75
OVCAR-5 = test system: OVCAR-5
EKVX = test system: EKVX
M14 = test system: M14
NCI-H522 = test system: NCI-H522
U-251 = test system: U-251
SK-OV-3 = test system: SK-OV-3
CAKI-1 = test system: CAKI-1

Measured: GI50

N#CC1(C#N)C2C=CC(c3coc4cccc2c34)C1(C#N)C#N (stereo not given)
inactive: OVCAR-8 3.47 µM | SF-268 6.27 µM | RPMI-8226 4.86 µM | IGROV-1 18.7 µM | A498 20.4 µM | HOP-62 22.6 µM | NCI-H23 18.7 µM | LOX IMVI 15.2 µM | SK-MEL-2 31.7 µM | SNB-75 19.4 µM | OVCAR-5 17 µM | EKVX 15.5 µM | M14 12.7 µM | NCI-H522 1.66 µM | U-251 19.5 µM | SK-OV-3 17.7 µM

O=C1OC(O)c2cc3c(cc21)OCO3 (stereo not given)
inactive: OVCAR-8 > 100 µM | SF-268 > 100 µM | RPMI-8226 > 100 µM | CAKI-1 > 100 µM | IGROV-1 > 100 µM | A498 > 100 µM | HOP-62 > 100 µM | NCI-H23 > 100 µM | LOX IMVI > 100 µM | SK-MEL-2 > 100 µM | SNB-75 > 100 µM | EKVX > 100 µM | M14 > 100 µM | NCI-H522 > 100 µM | U-251 > 100 µM | SK-OV-3 > 100 µM

CC1=C(C)C(=O)c2c(cc3c4ccccc4ccn23)C1=O
inactive: OVCAR-8 > 100 µM | RPMI-8226 > 100 µM | IGROV-1 > 100 µM | HOP-62 > 100 µM | NCI-H23 > 100 µM | LOX IMVI > 100 µM | SK-MEL-2 > 100 µM | SNB-75 > 100 µM | EKVX > 100 µM | M14 > 100 µM | NCI-H522 > 100 µM | U-251 > 100 µM | SK-OV-3 > 100 µM

CCOC(=O)c1cc2c3c(c(O)c(OC)c2s1)N(C(=O)c1cc2c4c(c(O)c(OC)c2s1)N(C(C)=O)CC4)CC3
inactive: OVCAR-8 72.8 µM | SF-268 > 100 µM | RPMI-8226 > 100 µM | CAKI-1 > 100 µM | IGROV-1 > 100 µM | A498 31.2 µM | HOP-62 35.6 µM | NCI-H23 > 100 µM | LOX IMVI > 100 µM | SNB-75 23.4 µM | OVCAR-5 > 100 µM | EKVX > 100 µM | M14 46.5 µM | NCI-H522 > 100 µM | U-251 63.8 µM | SK-OV-3 22 µM

COC1CCC(=C2C(=O)OC(C)(C)OC2=O)N1 (stereo not given)
inactive: OVCAR-8 > 100 µM | SF-268 > 100 µM | RPMI-8226 > 100 µM | CAKI-1 > 100 µM | IGROV-1 > 100 µM | HOP-62 > 100 µM | NCI-H23 > 100 µM | LOX IMVI > 100 µM | SK-MEL-2 > 100 µM | SNB-75 > 100 µM | OVCAR-5 > 100 µM | EKVX > 100 µM | M14 > 100 µM | NCI-H522 > 100 µM | U-251 > 100 µM | SK-OV-3 > 100 µM

Cc1cc2c(=O)cc(-c3ccc(O)cc3)oc2c(C(=O)O)c1C
inactive: OVCAR-8 > 100 µM | RPMI-8226 > 100 µM | CAKI-1 22 µM | IGROV-1 > 100 µM | HOP-62 > 100 µM | NCI-H23 > 100 µM | LOX IMVI > 100 µM | SK-MEL-2 > 100 µM | SNB-75 > 100 µM | OVCAR-5 > 100 µM | EKVX > 100 µM | M14 > 100 µM | NCI-H522 > 100 µM | U-251 > 100 µM | SK-OV-3 > 100 µM

CCN(CC)c1ccc(Cl)c2c1C(O)(C(C)C)C2(C)C (stereo not given)
inactive: OVCAR-8 18.9 µM | SF-268 28.2 µM | RPMI-8226 13.2 µM | CAKI-1 20 µM | IGROV-1 14.7 µM | A498 21.3 µM | HOP-62 23.7 µM | NCI-H23 15 µM | LOX IMVI 17.3 µM | SK-MEL-2 14.1 µM | SNB-75 18 µM | OVCAR-5 16.6 µM | M14 16.4 µM | NCI-H522 14.5 µM | U-251 16.8 µM | SK-OV-3 15.6 µM

Nc1nc2c3nc(Nc4ccccc4)sc3nc(=S)n2c2sc(Nc3ccccc3)nc12
inactive: OVCAR-8 15.2 µM | SF-268 12.1 µM | IGROV-1 > 100 µM | A498 > 100 µM | HOP-62 > 100 µM | NCI-H23 > 100 µM | SNB-75 50.8 µM | EKVX > 100 µM | M14 > 100 µM | NCI-H522 8.34 µM | U-251 15.5 µM | SK-OV-3 > 100 µM

CCOC(=O)C/N=c1\nc(SC)sc2c(C(=O)OCC)nc(Sc3ccccc3)n12
inactive: OVCAR-8 39.3 µM | SF-268 > 100 µM | RPMI-8226 8.41 µM | CAKI-1 13.4 µM | IGROV-1 83.2 µM | HOP-62 52.1 µM | LOX IMVI 6.76 µM | SK-MEL-2 58.9 µM | OVCAR-5 > 100 µM | EKVX 45.1 µM | M14 > 100 µM | NCI-H522 7.18 µM | SK-OV-3 > 100 µM

Cc1ccc(-c2cc(-c3ccco3)nc(N)n2)o1
inactive: OVCAR-8 > 100 µM | SF-268 > 100 µM | RPMI-8226 > 100 µM | IGROV-1 > 100 µM | HOP-62 > 100 µM | NCI-H23 > 100 µM | LOX IMVI > 100 µM | SK-MEL-2 > 100 µM | SNB-75 37.2 µM | OVCAR-5 > 100 µM | EKVX 65.2 µM | M14 > 100 µM | NCI-H522 > 100 µM

[O-][S+](Cc1ccccc1)c1nc2ccccc2nc1-c1cccs1 (stereo not given)
inactive: OVCAR-8 13.7 µM | SF-268 17.8 µM | RPMI-8226 17.9 µM | IGROV-1 14.6 µM | HOP-62 19.2 µM | NCI-H23 13.8 µM | SK-MEL-2 9.66 µM | SNB-75 17.6 µM | OVCAR-5 17.6 µM | EKVX 27.5 µM | M14 11 µM | NCI-H522 1.21 µM | U-251 18.4 µM | SK-OV-3 29 µM

CCCCC(C(=O)C(=O)Nc1ccccc1CC)C(=O)C(C)C (stereo not given)
inactive: OVCAR-8 > 100 µM | SF-268 > 100 µM | RPMI-8226 > 100 µM | CAKI-1 > 100 µM | IGROV-1 > 100 µM | A498 > 100 µM | NCI-H23 > 100 µM | LOX IMVI > 100 µM | SK-MEL-2 > 100 µM | OVCAR-5 > 100 µM | EKVX > 100 µM | M14 > 100 µM | NCI-H522 > 100 µM | U-251 > 100 µM | SK-OV-3 > 100 µM

Cc1ccc2c(c1)-c1c3c(nn1C)-c1ccccc1SC3O2 (stereo not given)
inactive: OVCAR-8 39.6 µM | SF-268 55.6 µM | RPMI-8226 21.8 µM | IGROV-1 > 100 µM | A498 49.7 µM | HOP-62 > 100 µM | NCI-H23 > 100 µM | LOX IMVI > 100 µM | SK-MEL-2 64.9 µM | SNB-75 55.8 µM | OVCAR-5 > 100 µM | EKVX 44.5 µM | NCI-H522 78.7 µM | U-251 > 100 µM | SK-OV-3 > 100 µM
